The values that follow come from ChEMBL document CHEMBL1201862, “PubChem BioAssay data set” (2004).

Structures are written as SMILES. Several values for one entry are separate records, joined by “and”; a condition that tells them apart may be missing. Identical values can stand only once. Counter-ions that a name gives are not always drawn.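 Method: 48-hour compound exposure of cells in 96-well plates, five concentrations, linear interpolation of endpoints. GI50 is the concentration that inhibits growth by half.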 Activity calls are given as the source filed them. Rule as the data show it: active = GI50 up to about 1.1 µM and inactive = higher.

Some test systems named below: SR; SF-539; 786-0; NCI-H23; K562; A498; NCI/ADR-RES; MOLT-4; RPMI-8226; SF-268; HL-60; NCI-H522; SNB-19; UACC-257; HCT-15; HCT-116; IGROV-1; COLO 205; HCC 2998; OVCAR-4.
Assay in all cases: growth of human tumour cells (NCI), 48 h

For `COc1cc(C[S+]([O-])c2ccc(O)cc2)cc(OC)c1OC` (stereo not drawn), the GI50 in the assay on SR, in the assay with SF-539, with 786-0, with NCI-H23, with K562 and in the assay with A498 was > 100 µM (inactive) throughout. Moreover, the GI50 in the assay with NCI/ADR-RES, in the assay on MOLT-4, in the assay on RPMI-8226, in the assay on SF-268, in the assay with HL-60 and with NCI-H522 was > 100 µM (inactive) each time. The GI50 in the assay with SNB-19 is > 100 µM (inactive); in the assay with UACC-257, > 100 µM (inactive); with HCT-15 it was over 100 µM; in the assay with HCT-116, > 100 µM (inactive); with IGROV-1, > 100 µM (inactive); with COLO 205, > 100 µM (inactive).

`O=C(O)c1ccc(Nc2nc3cc(C(F)(F)F)ccc3nc2C(=O)O)cc1`: the GI50 in the assay on SR, with 786-0, with NCI-H23, in the assay on K562, with A498 and in the assay with HCC 2998 was > 100 µM (inactive) each time. Also, the GI50 is > 100 µM (inactive) with NCI/ADR-RES; > 100 µM (inactive) with MOLT-4; 93.3 µM (inactive) in the assay with SF-268; > 100 µM (inactive) in the assay with HL-60; > 100 µM (inactive) in the assay with NCI-H522; > 100 µM (inactive) in the assay with SNB-19. The GI50 in the assay with HCT-15 is over 100 µM; in the assay with OVCAR-4, > 100 µM (inactive); with HCT-116, > 100 µM (inactive); with IGROV-1 it was > 100 µM (inactive); in the assay on COLO 205, > 100 µM (inactive).

For the compound `N=C(N)NS(=O)(=O)c1ccc(NCc2cccc3c(=O)c4ccc(Cl)cc4oc23)cc1`, the GI50 was 2.08 µM (inactive) in the assay with SR; 6.11 µM (inactive) with SF-539; 9.1 µM (inactive) in the assay with 786-0; 8.55 µM (inactive) in the assay with NCI-H23; 2.84 µM (inactive) with K562; > 9.02 µM (inactive) with A498. In addition, the GI50 is > 15.3 µM (inactive) in the assay with HCC 2998; 7.8 µM (inactive) in the assay with NCI/ADR-RES; 3.57 µM (inactive) in the assay with MOLT-4; 4.61 µM (inactive) in the assay on RPMI-8226; 4.33 µM (inactive) in the assay with SF-268; 1.38 µM (inactive) in the assay with HL-60. Besides, the GI50 was 5.97 µM (inactive) with SNB-19; 11.1 µM (inactive) in the assay on UACC-257; 4.93 µM in the assay with HCT-15; > 11.2 µM (inactive) in the assay on OVCAR-4; 2.99 µM (inactive) in the assay on HCT-116; 3.43 µM (inactive) in the assay with IGROV-1. In addition, the GI50 with COLO 205 is > 11.6 µM (inactive).

Regarding `CCOC(=O)NC(NC(C)CC)(C(F)(F)F)C(F)(F)F` (stereo not drawn), the GI50 with SR, with SF-539, with 786-0, in the assay on NCI-H23, in the assay on K562 and in the assay on A498 was > 100 µM (inactive) throughout. In addition, the GI50 with NCI/ADR-RES, with MOLT-4, in the assay on RPMI-8226, in the assay with SF-268, in the assay on HL-60 and in the assay with NCI-H522 was > 100 µM (inactive) throughout. Also, the GI50 was > 100 µM (inactive) in the assay on SNB-19; > 100 µM (inactive) with UACC-257; over 100 µM with HCT-15; > 100 µM (inactive) in the assay on OVCAR-4; > 100 µM (inactive) with HCT-116; > 100 µM (inactive) with IGROV-1. In addition, the GI50 in the assay on COLO 205 is > 100 µM (inactive).

Regarding `COc1cc2nc(-c3ccc4ccccc4c3)nc(O)c2cc1OC`, the GI50 in the assay on SR is > 100 µM (inactive); in the assay on 786-0, 22.9 µM (inactive); in the assay on NCI-H23 it was 49.2 µM (inactive); in the assay with K562 it was > 100 µM (inactive); in the assay with A498, 72.9 µM (inactive); in the assay with HCC 2998, > 100 µM (inactive). In addition, the GI50 in the assay with NCI/ADR-RES was 69.5 µM (inactive); with MOLT-4, > 100 µM (inactive); in the assay with RPMI-8226, > 100 µM (inactive); in the assay with SF-268 it was 19.1 µM (inactive); in the assay with HL-60 it was > 100 µM (inactive); with NCI-H522, 56.1 µM (inactive). The GI50 with SNB-19 was 23.8 µM (inactive); with UACC-257, > 100 µM (inactive); with HCT-15 it was over 100 µM; in the assay on OVCAR-4 it was 42.9 µM (inactive); with HCT-116 it was > 100 µM (inactive); in the assay on IGROV-1, > 100 µM (inactive). Also, the GI50 with COLO 205 is > 100 µM (inactive).

Regarding `O=C1Nc2ccccc2C1=Nc1ccc(S(=O)(=O)Nc2nccs2)cc1`, the GI50 was 51.8 µM (inactive) with SR; 48.3 µM (inactive) with SF-539; > 100 µM (inactive) in the assay with 786-0; > 100 µM (inactive) with NCI-H23; > 100 µM (inactive) in the assay on K562; > 100 µM (inactive) in the assay with A498. Besides, the GI50 in the assay with HCC 2998, with NCI/ADR-RES, in the assay with MOLT-4, in the assay with SF-268, with HL-60 and in the assay on NCI-H522 was > 100 µM (inactive) throughout. Further, the GI50 in the assay with SNB-19 is > 100 µM (inactive); in the assay with UACC-257 it was > 100 µM (inactive); in the assay with HCT-15, over 100 µM; in the assay on OVCAR-4, > 100 µM (inactive); in the assay with HCT-116 it was > 100 µM (inactive); in the assay on IGROV-1, > 100 µM (inactive). The GI50 with COLO 205 is > 100 µM (inactive).

As for `CC(C)Oc1cccc(N2C(Nc3ccccc3)=Nc3ccncc3S2(=O)=O)c1`, the GI50 in the assay with SR is 10.9 µM (inactive); with SF-539 it was 23.8 µM (inactive); with 786-0, 17.7 µM (inactive); in the assay with NCI-H23 it was 32.9 µM (inactive); with K562 it was 76 µM (inactive); in the assay with A498 it was 25.7 µM (inactive). The GI50 with HCC 2998 is 1.69 µM (inactive); in the assay on NCI/ADR-RES, 19.3 µM (inactive); in the assay with MOLT-4 it was > 100 µM (inactive); in the assay with SF-268, 38.9 µM (inactive); with HL-60, 0.41 µM (active); with NCI-H522, 30.6 µM (inactive). Moreover, the GI50 was 34.8 µM (inactive) in the assay on SNB-19; 17.4 µM (inactive) in the assay on UACC-257; 20.2 µM with HCT-15; 15.6 µM (inactive) in the assay on OVCAR-4; 20.4 µM (inactive) in the assay on HCT-116; 25.4 µM (inactive) in the assay with IGROV-1. Also, the GI50 in the assay on COLO 205 was 13.1 µM (inactive).

Turning to `O=C1C=CC(=O)c2c(NCC3CC3)ccc(NCC3CC3)c21`, the GI50 with SR is 21.9 µM (inactive); with SF-539 it was 25.5 µM (inactive); in the assay on 786-0 it was 56.4 µM (inactive); in the assay with NCI-H23, 26.4 µM (inactive); with K562, 22.5 µM (inactive); in the assay with A498, 60.5 µM (inactive). Moreover, the GI50 was 57.5 µM (inactive) in the assay on HCC 2998; 64.1 µM (inactive) in the assay on NCI/ADR-RES; 11.8 µM (inactive) in the assay on MOLT-4; 17.1 µM (inactive) in the assay on RPMI-8226; 11 µM (inactive) in the assay on HL-60; 1.05 µM (active) with NCI-H522. Further, the GI50 was > 100 µM (inactive) in the assay with SNB-19; 29.3 µM (inactive) in the assay with UACC-257; 13.3 µM in the assay on HCT-15; 37.8 µM (inactive) in the assay on HCT-116; 47.9 µM (inactive) with IGROV-1; 19.7 µM (inactive) with COLO 205.

Consider `O=[N+]([O-])c1cc(-c2ccc([As](=O)(O)O)cc2)ccc1[As](=O)(O)O`, for which the GI50 with SR, with 786-0, with NCI-H23, with K562, in the assay on A498 and with NCI/ADR-RES was > 100 µM (inactive) in each case. The GI50 in the assay on MOLT-4, in the assay on RPMI-8226, in the assay with SF-268, in the assay on HL-60, with NCI-H522 and with SNB-19 was > 100 µM (inactive) in each case. For the same compound, the GI50 with UACC-257 was > 100 µM (inactive); with HCT-15, over 100 µM; in the assay with OVCAR-4 it was > 100 µM (inactive); in the assay on HCT-116, > 100 µM (inactive); in the assay with IGROV-1, > 100 µM (inactive).

In the case of `CN(C)c1ccc(C=c2c3cc(O)ccc3n3c2cc(-c2ccccc2)[n+]3C)cc1`, the GI50 in the assay with SR is 0.568 µM (active); in the assay with 786-0, 1.09 µM (active); with NCI-H23, 1.08 µM (active); with K562, 0.428 µM (active); in the assay on A498, 4.47 µM (inactive); in the assay with HCC 2998, 2.22 µM (inactive). For the same compound, the GI50 was 36.1 µM (inactive) in the assay on NCI/ADR-RES; 3.27 µM (inactive) in the assay on MOLT-4; 0.282 µM (active) in the assay on RPMI-8226; 0.446 µM (active) with SF-268; 0.254 µM (active) in the assay on HL-60; 0.337 µM (active) with NCI-H522. Moreover, the GI50 was 0.369 µM (active) in the assay on SNB-19; 1.08 µM (active) with UACC-257; 18 µM in the assay on HCT-15; 3.28 µM (inactive) in the assay with OVCAR-4; 1.39 µM (inactive) in the assay with HCT-116; 0.281 µM (active) with IGROV-1. Besides, in the assay on COLO 205, the GI50 was 0.452 µM (active).

With `CN(C)CCCN1c2ccccc2Sc2ccc(C(F)(F)F)cc21` [TRIFLUPROMAZINE HYDROCHLORIDE], the GI50 in the assay on SR was 18.1 µM (inactive) and 17.6 µM (inactive); in the assay on SF-539, 15.2 µM (inactive) and 19.1 µM (inactive); with 786-0, 14.7 µM (inactive) and 14.1 µM (inactive); in the assay with NCI-H23, 18.3 µM (inactive) and 16.5 µM (inactive); with K562, > 10 µM (inactive) and 13.8 µM (inactive); in the assay on A498 it was 16.6 µM (inactive). For the same compound, the GI50 in the assay with NCI/ADR-RES was 17.2 µM (inactive); with MOLT-4, 17.7 µM (inactive); in the assay on RPMI-8226, 21.2 µM (inactive) and 14.9 µM (inactive); with SF-268, 14 µM (inactive) and 15 µM (inactive); in the assay on HL-60, 15.7 µM (inactive) and 12.7 µM (inactive); in the assay with NCI-H522, 17.9 µM (inactive) and 18.1 µM (inactive). Besides, the GI50 is 16.6 µM (inactive) and 15 µM (inactive) in the assay with SNB-19; 13.5 µM (inactive) and 15.3 µM (inactive) in the assay on UACC-257; 17.1 µM and 16.1 µM in the assay with HCT-15; 14.8 µM (inactive) with OVCAR-4; 14.2 µM (inactive) and 14.4 µM (inactive) in the assay with HCT-116; 15.9 µM (inactive) and 15.6 µM (inactive) in the assay on IGROV-1. The GI50 in the assay with COLO 205 was 16.3 µM (inactive) and 16.7 µM (inactive).
